Literature values in patent publication US6514536B2, “Drug preparations for treating sexual dysfunction” (L.A.M. Pharmaceutical Corporation, priority 1998, dated 2003).

Tests used:
[1] = most abundant metabolite in plasma
[2] = system: erection; conditions: men who failed prior intracavernous therapy with papaverine and phentolamine
[3] = system: penile blood flow; conditions: duplex sonography
[4] = system: isolated corpus cavernosum and corpus spongiosum preparations; conditions: in vitro
[5] = system: blood pressure; conditions: intravenous doses of 1 to 10 micrograms per kilogram of body weight
[6] = system: isolated cavernosal artery segments; conditions: segments pre-contracted with noreginephrine or prostaglandin E2α

Compound	biological activity [1]	share of men achieving adequate erections [2]	increase in penile blood flow compared with papaverine [3]	smooth muscle relaxation [4]	effect on blood pressure [5]	vasodilation [6]
CCCCCC(=O)CC[C@H]1[C@H](O)CC(=O)[C@@H]1CCCCCCC(=O)O [DKH-PGE1, 13,14-dihydro,15-keto PGE1]	biologically inactive					
CCCCC[C@H](O)/C=C/[C@H]1[C@H](O)CC(=O)[C@@H]1CCCCCCC(=O)O [PGE1, prostaglandin E1]		two-thirds	at least as effective as papaverine	dose-dependent smooth muscle relaxation	lower blood pressure	vasodilation has been demonstrated
